One assay has as its target T1, Akt2 (Homo sapiens, UniProt P31751).
T1 construct: unspecified tag, removed (detagged) (cleaved yes); purchased SignalChem and Proteros (Akt2); Merck Millipore (PDK1) 14-452 (PDK1); none given for Akt2
The assay can be described thus: Akt activation assay (PDK1-mediated activation, LANCE Ultra crosstide TR-FRET), Akt2. In kind it is biochemical. As to conditions: read-out: Biological Assay 1 IC50 (nM) Akt2. The method, boiled down: (§1)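 Compound + Akt preinc.; start w/ PDK1 5 nM, DOPS/DOPC 5.5 μM each, PIP3 0.55 μM, ATP 100 μM, Ulight-crosstide 100 nM; HEPES pH 7.5, 10 mM MgCl2, 2 mM DTT, 1% DMSO; 30 min; EDTA stop; Eu-Ab TR-FRET; 4-PL IC50.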
In general terms: In TR-FRET formats the signal depends on donor and acceptor labels being close together.

The next assay addresses T2, p-Akt2 in WM115 cells (Homo sapiens, UniProt P31751).
T2 construct: SureFire assays to detect cellular p-Akt1, p-Akt2 and p-Akt3 levels in WM115 cells (Akt2/3) and LNCaP cells (Akt1); endogenous in cells; host or cells: WM115 (ECACC 91061232), insulin-stimulated
The assay can be described thus: Phospho-Akt cellular SureFire assay, p-Akt2 in WM115 cells. In kind it is cell-based. Conditions: insulin stimulated, read-out: Biological Assay 2 IC50 (nM) Akt2 WM115. The method, boiled down:
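WM115 cells in 0.1% FBS medium stimulated 10 min with 100 nM insulin, then exposed to compound for 15 min at 37° C (0.3% DMSO final). Lysates assayed by AlphaScreen with anti-(pThr308)Akt and isoform-specific total Akt2 antibodies; IC50 from 4-parameter fit.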

The target in another assay is T3, p-Akt3 in WM115 cells (Homo sapiens, UniProt Q9Y243).
T3 construct: SureFire assays to detect cellular p-Akt1, p-Akt2 and p-Akt3 levels in WM115 cells (Akt2/3) and LNCaP cells (Akt1); endogenous in cells; host or cells: WM115 (ECACC 91061232), insulin-stimulated
T3 sequence (Q9Y243 whole entry): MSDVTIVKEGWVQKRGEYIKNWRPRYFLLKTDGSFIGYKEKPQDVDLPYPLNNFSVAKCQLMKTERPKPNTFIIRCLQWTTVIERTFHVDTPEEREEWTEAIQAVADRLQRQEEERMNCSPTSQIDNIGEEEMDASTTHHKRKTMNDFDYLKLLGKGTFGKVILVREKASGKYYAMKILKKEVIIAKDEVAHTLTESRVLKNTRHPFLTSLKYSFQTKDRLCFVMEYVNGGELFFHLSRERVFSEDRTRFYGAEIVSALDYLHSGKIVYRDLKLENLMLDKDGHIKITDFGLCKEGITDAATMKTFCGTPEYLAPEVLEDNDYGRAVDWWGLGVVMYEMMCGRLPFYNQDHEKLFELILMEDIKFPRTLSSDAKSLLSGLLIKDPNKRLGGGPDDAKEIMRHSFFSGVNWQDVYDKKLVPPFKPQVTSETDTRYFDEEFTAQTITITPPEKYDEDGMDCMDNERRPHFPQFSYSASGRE
In words: Phospho-Akt cellular SureFire assay, p-Akt3 in WM115 cells. As to conditions: insulin stimulated, read-out: Biological Assay 2 IC50 (nM) Akt3 WM115. The assay is classed as cell-based. The method, boiled down: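 WM115 cells were serum-reduced to 0.1% FBS, stimulated with 100 nM insulin for 10 min, then exposed to compound (0.3% DMSO) for 15 min at 37 °C. Lysates were assayed for Thr308-phosphorylated Akt3 by AlphaScreen SureFire using an isoform-specific total Akt3 capture antibody. IC50 was derived from a 4-parameter fit.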

A further assay has as its target T4, p-Akt1 in LNCaP cells (Homo sapiens, UniProt P31749).
T4 construct: SureFire assays to detect cellular p-Akt1, p-Akt2 and p-Akt3 levels in WM115 cells (Akt2/3) and LNCaP cells (Akt1); endogenous in cells; host or cells: LNCaP (ECACC 89110211)
The assay can be described thus: Phospho-Akt cellular SureFire assay, p-Akt1 in LNCaP cells. The assay is classed as cell-based. As to conditions: read-out: Biological Assay 2 IC50 (nM) Akt1 LNCaP. The method, boiled down:
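LNCaP cells, 5×10^4/well, seeded overnight, switched to 0.1% FBS medium without insulin stimulation, then compound for 15 min at 37 °C (0.3% DMSO). Lysate p-Akt1 (pThr308) by AlphaScreen SureFire, two 2 h incubations at room temperature; IC50 by 4-parameter fit.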

Another assay deals with T5, Akt3 (Homo sapiens, UniProt Q9Y243).
T5 construct: unspecified tag, removed (detagged) (cleaved yes); purchased SignalChem and Proteros (Akt3); Merck Millipore (PDK1) 14-452 (PDK1); none given for Akt3
T5 sequence (Q9Y243 whole entry): as above
The assay can be described thus: Akt activation assay (PDK1-mediated activation, LANCE Ultra crosstide TR-FRET), Akt3. In kind it is biochemical. Conditions: read-out: Biological Assay 1 IC50 (nM) Akt3. The method, boiled down:
as §1

The target of the next assay is T6, Akt1 (Homo sapiens, UniProt P31749).
T6 construct: unspecified tag, removed (detagged) (cleaved yes); purchased SignalChem and Proteros (Akt1); Merck Millipore (PDK1) 14-452 (PDK1); none given for Akt1
T6 sequence (P31749 whole entry): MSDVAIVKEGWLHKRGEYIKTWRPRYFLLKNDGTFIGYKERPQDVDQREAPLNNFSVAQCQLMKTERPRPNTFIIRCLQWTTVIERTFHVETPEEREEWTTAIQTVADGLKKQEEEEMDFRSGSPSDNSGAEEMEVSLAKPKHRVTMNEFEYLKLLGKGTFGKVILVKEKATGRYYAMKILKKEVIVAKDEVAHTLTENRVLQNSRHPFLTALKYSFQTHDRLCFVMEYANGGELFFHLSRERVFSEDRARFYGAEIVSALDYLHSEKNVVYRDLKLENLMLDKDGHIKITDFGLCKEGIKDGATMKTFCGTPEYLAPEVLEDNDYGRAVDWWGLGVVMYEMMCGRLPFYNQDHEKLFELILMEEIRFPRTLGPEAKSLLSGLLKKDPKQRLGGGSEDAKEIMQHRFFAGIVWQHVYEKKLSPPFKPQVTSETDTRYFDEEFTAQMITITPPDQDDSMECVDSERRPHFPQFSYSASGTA
The assay can be described thus: Akt activation assay (PDK1-mediated activation, LANCE Ultra crosstide TR-FRET), Akt1. In kind it is biochemical. As to conditions: read-out: Biological Assay 1 IC50 (nM) Akt1. The method, boiled down: as §1

Bounds are passed on as bounds.

T4 sequence (P31749 whole entry): as above
T2 sequence (P31751 whole entry): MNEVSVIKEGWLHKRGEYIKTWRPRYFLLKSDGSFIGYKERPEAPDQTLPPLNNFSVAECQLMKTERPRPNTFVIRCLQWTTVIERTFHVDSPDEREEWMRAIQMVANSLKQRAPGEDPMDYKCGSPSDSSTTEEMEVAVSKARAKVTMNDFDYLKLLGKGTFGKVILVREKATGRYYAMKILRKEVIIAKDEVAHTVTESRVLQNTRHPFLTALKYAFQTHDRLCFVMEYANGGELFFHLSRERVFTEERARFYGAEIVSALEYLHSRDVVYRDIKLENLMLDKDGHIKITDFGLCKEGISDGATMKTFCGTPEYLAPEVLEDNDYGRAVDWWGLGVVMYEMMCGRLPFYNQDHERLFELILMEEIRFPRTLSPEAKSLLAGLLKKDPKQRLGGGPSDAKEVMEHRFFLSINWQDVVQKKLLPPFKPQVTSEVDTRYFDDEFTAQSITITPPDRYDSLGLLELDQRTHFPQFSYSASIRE
T1 sequence (P31751 whole entry): as above

In general, IC50 refers to the concentration that gives 50% inhibition. In the case of `NC1(c2ccc(-c3ncc(NC(=O)C[C@H]4CC[C@H](N5CCOCC5)CC4)cc3-c3ccsc3)cc2)CCC1` [Example 38, N-(6-(4-(1-aminocyclobutyl)phenyl)-5-(thiophen-3-yl)pyridin-3-yl)-2-(trans-4-morpholinocyclohexyl)acetamide], the IC50 on Akt2 turned out to be 1900 nM; at p-Akt2 in WM115 cells it was 3000 nM; on p-Akt3 in WM115 cells, 92 nM; at p-Akt1 in LNCaP cells, 7000 nM; on Akt3, 560 nM; at Akt1, 9000 nM.
With `CC(C)(N)c1ccc(-c2ncc(NC(=O)C[C@H]3CC[C@H](N4CCOC4=O)CC3)cc2-c2ccccc2)cc1` [Example 42, N-(6-(4-(2-aminopropan-2-yl)phenyl)-5-phenylpyridin-3-yl)-2-(trans-4-(2-oxooxazolidin-3-yl)cyclohexyl)acetamide], the IC50 on Akt2 is 4500 nM; at p-Akt2 in WM115 cells it was 7900 nM; on p-Akt3 in WM115 cells, 210 nM; at p-Akt1 in LNCaP cells, greater than 30000 nM; on Akt3, 960 nM; at Akt1, greater than 30000 nM.
For `CC(=O)N(C)[C@H]1CC[C@H](CC(=O)Nc2cnc(-c3ccc(C(C)(C)N)nc3)c(-c3ccccc3)c2)CC1` [Example 43, N-(6′-(2-aminopropan-2-yl)-3-phenyl-[2,3′-bipyridin]-5-yl)-2-(trans-4-(N-methylacetamido)cyclohexyl)acetamide], the IC50 at Akt2 is greater than 30000 nM; at p-Akt2 in WM115 cells, greater than 30000 nM; at p-Akt3 in WM115 cells, 1700 nM; on p-Akt1 in LNCaP cells, greater than 30000 nM; on Akt3, 1100 nM; on Akt1, greater than 30000 nM.
Regarding `COC(=O)N(C)[C@H]1CC[C@H](CC(=O)Nc2cnc(-c3ccc([C@]4(N)C[C@](C)(O)C4)cc3)c(-c3ccccc3)c2)CC1` [Example 44, Methyl (trans-4-(2-((6-(4-(trans-1-amino-3-hydroxy-3-methylcyclobutyl)phenyl)-5-phenylpyridin-3-yl)amino)-2-oxoethyl)cyclohexyl)(methyl)carbamate], the IC50 was determined as 110 nM on Akt2; 350 nM on p-Akt2 in WM115 cells; 6 nM on p-Akt3 in WM115 cells; 1100 nM on p-Akt1 in LNCaP cells; 22 nM at Akt3; 1200 nM on Akt1.
`N[C@]1(c2ccc(-c3nnc(NC(=O)C[C@H]4CC[C@H](N5CCOC5=O)CC4)cc3-c3ccccc3)cc2)C[C@@H](F)C1` [Example 45, N-(6-(4-(trans-1-amino-3-fluorocyclobutyl)phenyl)-5-phenylpyridazin-3-yl)-2-(trans-4-(2-oxooxazolidin-3-yl)cyclohexyl)acetamide]: the IC50 on Akt2 was 380 nM; at p-Akt2 in WM115 cells, greater than 3600 nM; on p-Akt3 in WM115 cells, 38 nM; on p-Akt1 in LNCaP cells, greater than 30000 nM; at Akt3, 67 nM; at Akt1 it was greater than 17000 nM.
As for `CN(C(=O)C1CCC1)[C@H]1CC[C@H](CC(=O)Nc2cnc(-c3ccc(C(C)(C)N)cc3)c(-c3ccccc3)c2)CC1` [Example 47, N-(trans-4-(2-((6-(4-(2-aminopropan-2-yl)phenyl)-5-phenylpyridin-3-yl)amino)-2-oxoethyl)cyclohexyl)-N-methylcyclobutanecarboxamide], the half-maximal inhibitory concentration (IC50) is 6100 nM at Akt2; 5300 nM on p-Akt2 in WM115 cells; 240 nM at p-Akt3 in WM115 cells; greater than 30000 nM at p-Akt1 in LNCaP cells; 75 nM at Akt3; greater than 30000 nM at Akt1.
In the case of `NC1(c2ccc(-c3ncc(NC(=O)[C@@H](F)C4CCN(S(=O)(=O)C5CC5)CC4)cc3-c3ccccc3)cc2)CCC1` [Example 50, (S)—N-(6-(4-(1-aminocyclobutyl)phenyl)-5-phenylpyridin-3-yl)-2-(1-(cyclopropylsulfonyl)piperidin-4-yl)-2-fluoroacetamide], the 50% inhibitory concentration (IC50) on Akt2 is 670 nM; on p-Akt2 in WM115 cells, 6800 nM; at p-Akt3 in WM115 cells, 580 nM; on p-Akt1 in LNCaP cells, greater than 30000 nM; on Akt3, 370 nM; at Akt1 it was 5800 nM.
`COC(=O)N(C(C)C)[C@H]1CC[C@H](CC(=O)Nc2cnc(-c3ccc(C4(N)CCC4)cc3)c(-c3ccccc3)c2)CC1` [Example 51, Methyl (trans-4-(2-((6-(4-(1-aminocyclobutyl)phenyl)-5-phenylpyridin-3-yl)amino)-2-oxoethyl)cyclohexyl)(isopropyl)carbamate]: the half-inhibitory concentration (IC50) was 1500 nM on Akt2; 9100 nM on p-Akt2 in WM115 cells; 670 nM on p-Akt3 in WM115 cells; greater than 30000 nM at p-Akt1 in LNCaP cells; 190 nM on Akt3; 8900 nM at Akt1.
In the case of `CN(C(=O)C1CC1)[C@H]1CC[C@H](CC(=O)Nc2cnc(-c3ccc(C(C)(C)N)c(F)c3)c(-c3ccccc3)c2)CC1` [Example 53, N-(trans-4-(2-((6-(4-(2-aminopropan-2-yl)-3-fluorophenyl)-5-phenylpyridin-3-yl)amino)-2-oxoethyl)cyclohexyl)-N-methylcyclopropanecarboxamide], the concentration for half-maximal inhibition (IC50) at Akt2 was greater than 30000 nM; on p-Akt2 in WM115 cells it was 18000 nM; on p-Akt3 in WM115 cells, 680 nM; at p-Akt1 in LNCaP cells, greater than 30000 nM; at Akt3, 4100 nM; at Akt1, greater than 30000 nM.
Consider `CN(C)C(=O)[C@H]1CC[C@H](CC(=O)Nc2cnc(-c3ccc(C(C)(C)N)cc3)c(-c3ccccc3)c2)CC1` [Example 55, trans-4-(2-((6-(4-(2-aminopropan-2-yl)phenyl)-5-phenylpyridin-3-yl)amino)-2-oxoethyl)-N,N-dimethylcyclohexanecarboxamide], for which the IC50 on Akt2 was 3300 nM; at p-Akt2 in WM115 cells, 3800 nM; on p-Akt3 in WM115 cells, 160 nM; at p-Akt1 in LNCaP cells, greater than 30000 nM; at Akt3, 1600 nM; at Akt1 it was greater than 30000 nM.
In the case of `COC(=O)N(C)[C@H]1CC[C@H](CC(=O)Nc2cc(-c3ccccc3)c(-c3ccc(C(C)(C)N)cc3)nn2)CC1` [Example 56, Methyl (trans-4-(2-((6-(4-(2-aminopropan-2-yl)phenyl)-5-phenylpyridazin-3-yl)amino)-2-oxoethyl)cyclohexyl)(methyl)carbamate], the IC50 was 10000 nM on Akt2; greater than 30000 nM at p-Akt2 in WM115 cells; 330 nM on p-Akt3 in WM115 cells; greater than 30000 nM at p-Akt1 in LNCaP cells; 100 nM on Akt3; greater than 30000 nM at Akt1.
For the compound `CC(=O)N(C)[C@H]1CC[C@H](CC(=O)Nc2cc(-c3ccccc3)c(-c3ccc([C@]4(N)C[C@](C)(O)C4)cc3)nn2)CC1` [Example 57, N-(6-(4-(trans-1-amino-3-hydroxy-3-methylcyclobutyl)phenyl)-5-phenylpyridazin-3-yl)-2-(trans-4-(N-methylacetamido)cyclohexyl)acetamide], the concentration for half-maximal inhibition (IC50) at Akt2 amounted to 190 nM; on p-Akt2 in WM115 cells, 600 nM; on p-Akt3 in WM115 cells, 8 nM; at p-Akt1 in LNCaP cells, 5300 nM; at Akt3, 7 nM; on Akt1, 1600 nM.
Take `C[C@]1(O)C[C@@](N)(c2ccc(-c3nnc(NC(=O)C[C@H]4CC[C@H](N5CCOC5=O)CC4)cc3-c3ccccc3)cc2)C1` [Example 58, N-(6-(4-(trans-1-amino-3-hydroxy-3-methylcyclobutyl)phenyl)-5-phenylpyridazin-3-yl)-2-(trans-4-(2-oxooxazolidin-3-yl)cyclohexyl)acetamide]: the half-inhibitory concentration (IC50) on Akt2 was 98 nM; at p-Akt2 in WM115 cells, 750 nM; on p-Akt3 in WM115 cells it was 8 nM; on p-Akt1 in LNCaP cells it was 4000 nM; on Akt3, 3 nM; on Akt1, 1300 nM.
Turning to `COC(=O)N(C)[C@H]1CC[C@H](CC(=O)Nc2cc(-c3ccccc3)c(-c3ccc([C@]4(N)C[C@](C)(O)C4)cc3)nn2)CC1` [Example 59, Methyl (trans-4-(2-((6-(4-(trans-1-amino-3-hydroxy-3-methylcyclobutyl)phenyl)-5-phenylpyridazin-3-yl)amino)-2-oxoethyl)cyclohexyl)(methyl)carbamate], the IC50 worked out at 50 nM at Akt2; 380 nM at p-Akt2 in WM115 cells; 24 nM on p-Akt3 in WM115 cells; 1600 nM on p-Akt1 in LNCaP cells; 4 nM on Akt3; 1400 nM at Akt1.

(Values after patent publication US10336702B2, “Pharmaceutically active compounds” (BERGENBIO ASA, priority 2015, dated 2019).)
